Experiment [1] deals with Neuronal acetylcholine receptor subunit alpha-2 (Homo sapiens, UniProt Q15822).
In experiment [2] the target is Neuronal acetylcholine receptor subunit alpha-3 (Homo sapiens, UniProt P32297).
Experiment [3] has as its target Neuronal acetylcholine receptor subunit alpha-4 (Homo sapiens, UniProt P43681).

The values that follow come from BindingDB's records for PubMed 9454827 (Sibia Neurosciences, 1998).

Chain of Neuronal acetylcholine receptor subunit alpha-3 (P32297 whole entry): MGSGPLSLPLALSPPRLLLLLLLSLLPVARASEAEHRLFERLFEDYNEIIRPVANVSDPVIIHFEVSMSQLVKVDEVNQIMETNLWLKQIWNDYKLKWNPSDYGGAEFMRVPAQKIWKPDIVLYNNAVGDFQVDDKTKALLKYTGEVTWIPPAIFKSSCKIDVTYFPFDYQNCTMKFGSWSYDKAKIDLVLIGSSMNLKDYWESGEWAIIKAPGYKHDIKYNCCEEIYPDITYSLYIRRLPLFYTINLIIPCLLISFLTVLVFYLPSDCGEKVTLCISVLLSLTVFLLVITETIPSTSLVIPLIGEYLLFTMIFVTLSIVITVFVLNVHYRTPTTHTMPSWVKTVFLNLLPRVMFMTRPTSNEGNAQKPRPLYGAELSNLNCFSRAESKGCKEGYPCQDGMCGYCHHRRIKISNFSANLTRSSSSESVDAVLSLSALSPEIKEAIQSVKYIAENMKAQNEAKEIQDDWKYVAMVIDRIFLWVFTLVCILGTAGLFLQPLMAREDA
Chain of Neuronal acetylcholine receptor subunit alpha-2 (Q15822 whole entry): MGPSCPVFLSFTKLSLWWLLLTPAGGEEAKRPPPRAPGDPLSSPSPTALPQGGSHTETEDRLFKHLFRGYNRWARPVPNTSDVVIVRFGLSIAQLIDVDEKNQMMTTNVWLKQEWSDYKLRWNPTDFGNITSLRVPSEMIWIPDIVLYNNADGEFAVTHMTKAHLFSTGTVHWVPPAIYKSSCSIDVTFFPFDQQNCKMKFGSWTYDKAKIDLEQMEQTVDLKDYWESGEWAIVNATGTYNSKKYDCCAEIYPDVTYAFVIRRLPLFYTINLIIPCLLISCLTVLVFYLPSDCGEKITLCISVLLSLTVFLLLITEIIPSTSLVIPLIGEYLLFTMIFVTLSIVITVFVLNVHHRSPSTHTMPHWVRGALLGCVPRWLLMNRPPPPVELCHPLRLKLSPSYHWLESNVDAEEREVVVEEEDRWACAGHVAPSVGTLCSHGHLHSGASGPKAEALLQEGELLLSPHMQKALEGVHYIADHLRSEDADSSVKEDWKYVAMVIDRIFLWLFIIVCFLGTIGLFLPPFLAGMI
Chain of Neuronal acetylcholine receptor subunit alpha-4 (P43681 whole entry): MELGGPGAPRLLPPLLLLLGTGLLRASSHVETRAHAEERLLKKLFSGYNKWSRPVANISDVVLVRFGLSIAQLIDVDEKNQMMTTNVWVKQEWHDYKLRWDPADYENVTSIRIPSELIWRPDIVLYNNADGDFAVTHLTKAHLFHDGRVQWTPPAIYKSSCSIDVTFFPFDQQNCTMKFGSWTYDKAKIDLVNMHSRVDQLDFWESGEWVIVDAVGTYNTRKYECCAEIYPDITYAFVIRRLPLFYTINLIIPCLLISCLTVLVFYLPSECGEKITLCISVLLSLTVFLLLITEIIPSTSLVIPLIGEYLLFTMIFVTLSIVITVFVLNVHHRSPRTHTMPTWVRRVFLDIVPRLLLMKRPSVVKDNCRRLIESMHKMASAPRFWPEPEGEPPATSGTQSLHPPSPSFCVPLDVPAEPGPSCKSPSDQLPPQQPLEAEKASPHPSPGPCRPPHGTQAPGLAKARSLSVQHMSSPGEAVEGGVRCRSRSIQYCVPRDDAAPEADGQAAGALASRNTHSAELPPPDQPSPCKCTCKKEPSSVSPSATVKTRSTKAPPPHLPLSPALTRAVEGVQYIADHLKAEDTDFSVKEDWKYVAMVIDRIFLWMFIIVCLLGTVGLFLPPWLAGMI

In turn, `CN1CCC[C@H]1c1cccnc1` [(R,S)-nicotine] had a Ki in experiment [1] of 9.9 µM.

As for `C[N+](C)(C)CCOC(=O)CCCCCCC(=O)OCC[N+](C)(C)C` [NSC_123990], the figures for the Ki in experiment [2], in experiment [1] and in experiment [3] were more than 10 µM, 8.75 µM and 1.12 µM, respectively.

As to `COc1cc2c3cc1Oc1cc(ccc1O)C[C@H]1c4c(cc(OC)c(O)c4Oc4ccc(cc4)C[C@@H]3N(C)CC2)CC[N+]1(C)C` [CAS_57-94-3], the inhibition constant (Ki) was 0.73 µM in experiment [2], 2.26 µM in experiment [1] and 0.86 µM in experiment [3].

As to `O=c1cccc2n1C[C@H]1CNC[C@H]2C1` [(1S,9R)-7,11-diazatricyclo[7.3.1.0~2,7~]trideca-2,4-dien-6-one], the Ki in experiment [2] was more than 10 µM; in experiment [3] it was 0.515 µM.

Take `CNC1(C)C2CCC(C2)C1(C)C` (stereo not given) [Methyl-(2,3,3-trimethyl-bicyclo[2.2.1]hept-2-yl)-amine(Mecamylamine)]: the Ki in experiment [1] was found to be 3.06 µM; in experiment [3], 0.56 µM.

Take `CO[C@@H]1CC=C2CCN3CCC4=C(CC(=O)OC4)[C@@]23C1`: the Ki in experiment [1] stood at 5.09 µM. In other words, the single-digit micromolar range.

Turning to `C[N+]1(C)CCN(c2ccccc2)CC1` [DMPP], the Ki in experiment [2], in experiment [1] and in experiment [3] was more than 10 µM each time.

The Ki is the dissociation constant of the complex between target and ligand, obtained from inhibition or displacement. Low values mean a stronger hold on the target, high ones a looser hold on the target.
